Test results: US20070059310A1, “Therapeutic combination compositions and methods of using same” (priority 2005, published 2007)

Experiment: Aggregate number from ratio of molecular weights at pH 7 and pH 13 (GPC fractions)
Assay type: physicochemical
Experimental: The aggregate number of a β-glucan sample under a specified set of conditions can be determined by determining the average molecular weight of the polymer under those conditions. The β-glucan is then denatured, that is, subjected to conditions which separate any aggregates into their component single polymer chains. The average molecular weight of the denatured polymer is then determined. The ratio of the molecular weights of the aggregated and denatured forms of the polymer is the aggregate number. A typical β-glucan composition includes molecules having a range of chain lengths, conformations and molecular weights. Thus, the measured aggregate number of a β-glucan composition is the mass average aggregate number across the entire range of β-glucan molecules within the composition. […] For example, a measured aggregate number of about 6 or more is characteristic of a composition in which the β-glucan is substantially in the triple helix aggregate conformation. […]
The molecular weights of fractions A and C were determined at 25° C. at both pH 7 and pH 13, and at 37° C. at pH 7. […] Thus, at a given temperature the ratio of the molecular weights determined at pH 7 and pH 13 is the aggregate number at pH 7 at that temperature. […]

Which aggregate number (pH 7, 25° C.) does the source give for scleroglucan here?
The aggregate number was “about 3”.

And the aggregate number (pH 7, 37° C.)?
The aggregate number was “about 3”.
